This is an account of results in PubChem BioAssay (NCI).

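Interpolation was linear, between the two tested concentrations surrounding the appropriate level; five concentrations were tested over 48 hours in 96-well plates. TGI is the concentration that stops growth completely.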

Some test systems named below: MDA-N; SF-268 CNS; SN12C renal; ACHN renal; MDA-MB-231 breast; U251 CNS; SK-OV-3 ovarian; MALME-3M melanoma; KM12 colon; OVCAR-4 ovarian; SK-MEL-5 melanoma; HT29 colon; HCT-15 colon; CCRF-CEM leukemia; HS 578T breast; MOLT-4 leukemia; DU-145 prostate; HCC-2998 colon; HCT-116 colon.
What all share (assay): growth of human tumour cells (NCI), 48 h

As to `N=c1oc2c(Br)cc(Br)cc2cc1C(=O)Nc1ccccn1`, the TGI with MDA-N, with SF-268 CNS, with SN12C renal, in the test on ACHN renal, in the test with MDA-MB-231 breast and in the test on U251 CNS was above 100 µM throughout. The TGI in the test on SK-OV-3 ovarian, in the test on MALME-3M melanoma, in the test on KM12 colon, with OVCAR-4 ovarian, in the test on SK-MEL-5 melanoma and with HT29 colon was above 100 µM each time. Besides, the TGI in the test with HCT-15 colon, with CCRF-CEM leukemia, with HS 578T breast, in the test on MOLT-4 leukemia, in the test on DU-145 prostate and with HCC-2998 colon was above 100 µM in each case. In the test on HCT-116 colon, this compound returned a TGI above 100 µM.
For `C=C1[C@H](OC(=O)C(C)C)[C@@H](OC(C)=O)[C@@H](OC(C)=O)C(C)(C)[C@@H]2O[C@H]2[C@@H](C)C(=O)[C@@]2(OC(C)=O)C[C@@](C)(OC(C)=O)[C@H](OC(C)=O)[C@@H]2[C@H]1OC(C)=O`, the TGI in the test with MDA-N, with SF-268 CNS, in the test with SN12C renal, in the test with ACHN renal, in the test on MDA-MB-231 breast and in the test on U251 CNS was above 100 µM each time. The TGI with SK-OV-3 ovarian, in the test on MALME-3M melanoma, in the test with KM12 colon, in the test on OVCAR-4 ovarian, in the test with SK-MEL-5 melanoma and in the test on HT29 colon was above 100 µM throughout. Further, the TGI in the test with HCT-15 colon, in the test on CCRF-CEM leukemia, in the test with HS 578T breast, in the test on MOLT-4 leukemia, with DU-145 prostate and with HCC-2998 colon was above 100 µM in each case. This compound displayed a TGI in the test with HCT-116 colon above 100 µM.
Turning to `CCOC(=O)N1CC2(C)C=CC1C(C(=O)OC)C2` (centres undefined), the TGI in the test with MDA-N, with SF-268 CNS, with SN12C renal, in the test on ACHN renal, in the test on MDA-MB-231 breast and with U251 CNS was above 100 µM each time. Moreover, the TGI in the test on SK-OV-3 ovarian, in the test on MALME-3M melanoma, in the test on KM12 colon, in the test with OVCAR-4 ovarian, with SK-MEL-5 melanoma and in the test with HT29 colon was above 100 µM each time. The TGI with HCT-15 colon, in the test on CCRF-CEM leukemia, in the test on HS 578T breast, with MOLT-4 leukemia, in the test on DU-145 prostate and in the test with HCC-2998 colon was above 100 µM in each case. The TGI in the test on HCT-116 colon is above 100 µM.
Consider `Cc1nc2c(O)cc3c4c(=O)n(C)c(=O)n(C)c4n(Cc4ccccc4)c3c2nc1C`, for which the TGI with MDA-N was 34.2 µM; with SF-268 CNS, 32.9 µM; in the test on SN12C renal it was 38.1 µM; in the test on ACHN renal it was 31.7 µM; with MDA-MB-231 breast it was 38.2 µM; with U251 CNS, 35.4 µM. Besides, the TGI with SK-OV-3 ovarian amounted to 32.2 µM; in the test on MALME-3M melanoma, 38.8 µM; with KM12 colon, 54 µM; in the test with OVCAR-4 ovarian, 23.7 µM; with SK-MEL-5 melanoma, 32.8 µM; in the test on HT29 colon it was 32.2 µM. The TGI with HCT-15 colon was 34.3 µM; in the test on CCRF-CEM leukemia, 50 µM; with HS 578T breast, 80.1 µM; in the test with MOLT-4 leukemia it was 70.1 µM; in the test on DU-145 prostate, above 100 µM; with HCC-2998 colon, 40.3 µM. The compound also returned a TGI in the test with HCT-116 colon of 52.1 µM.
Regarding `CCOC(=O)CC(=O)C(=O)NNC1=NCCN1`, the TGI with MDA-N, with SF-268 CNS, with SN12C renal, in the test with ACHN renal, with MDA-MB-231 breast and in the test on U251 CNS was above 100 µM in each case. The TGI with SK-OV-3 ovarian, with MALME-3M melanoma, with KM12 colon, in the test on OVCAR-4 ovarian, with SK-MEL-5 melanoma and in the test with HT29 colon was above 100 µM each time. Also, the TGI with HCT-15 colon, in the test on CCRF-CEM leukemia, with HS 578T breast, in the test with MOLT-4 leukemia, in the test on DU-145 prostate and with HCC-2998 colon was above 100 µM each time. In the test on HCT-116 colon, this compound came in with a TGI above 100 µM.
As for `Cc1ccc(-c2cc(-c3ccc(Cl)cc3)nc(/N=C3\C(=O)N(CN4CCOCC4)c4ccccc43)n2)cc1`, the TGI with MDA-N is 37.6 µM; in the test on SF-268 CNS it was above 100 µM; in the test with SN12C renal, above 100 µM; in the test on ACHN renal it was 63.8 µM; with MDA-MB-231 breast, above 100 µM; with U251 CNS it was 77 µM. The TGI is above 100 µM in the test with SK-OV-3 ovarian; 69.4 µM with MALME-3M melanoma; 58.5 µM with KM12 colon; above 100 µM with OVCAR-4 ovarian; 36.1 µM in the test on SK-MEL-5 melanoma; 65.1 µM with HT29 colon. Further, the TGI is above 100 µM in the test with HCT-15 colon; 88.2 µM in the test on CCRF-CEM leukemia; 51.5 µM in the test on HS 578T breast; 35.8 µM in the test on MOLT-4 leukemia; above 100 µM in the test on DU-145 prostate; 34 µM in the test with HCC-2998 colon. In the test with HCT-116 colon, this compound returned a TGI of 93.9 µM.
With `O=c1[nH]c(=O)n(C2OC(CO)C(O)C2O)c2ncc(-c3ccc(-c4ccccc4)cc3)nc12` (centres undefined), the TGI in the test on MDA-N, in the test with SF-268 CNS, with SN12C renal, in the test on ACHN renal, in the test on MDA-MB-231 breast and in the test on U251 CNS was above 20 µM each time. The TGI with SK-OV-3 ovarian, in the test on MALME-3M melanoma, in the test with KM12 colon, in the test on OVCAR-4 ovarian, in the test on SK-MEL-5 melanoma and with HT29 colon was above 20 µM throughout. Further, the TGI in the test on HCT-15 colon, with CCRF-CEM leukemia, in the test with HS 578T breast, with MOLT-4 leukemia, in the test with DU-145 prostate and in the test with HCC-2998 colon was above 20 µM throughout. The same compound had a TGI in the test with HCT-116 colon above 20 µM.
Consider `O=c1c(-c2c(-c3ccccc3)oc3ccc(Cl)cc3c2=O)c(-c2ccccc2)oc2ccc(Cl)cc12`, for which the TGI was above 100 µM in the test on MDA-N; above 92.3 µM in the test on SF-268 CNS; above 100 µM in the test with SN12C renal; above 100 µM with ACHN renal; above 83.7 µM in the test with MDA-MB-231 breast; above 100 µM in the test with U251 CNS. The TGI is above 89.4 µM with SK-OV-3 ovarian; above 100 µM in the test on MALME-3M melanoma; above 100 µM in the test on KM12 colon; above 100 µM with OVCAR-4 ovarian; above 100 µM with SK-MEL-5 melanoma; above 100 µM with HT29 colon. Moreover, the TGI in the test with HCT-15 colon, in the test on CCRF-CEM leukemia, in the test with HS 578T breast, in the test on MOLT-4 leukemia, in the test with DU-145 prostate and in the test on HCC-2998 colon was above 100 µM each time. Besides, the TGI with HCT-116 colon is above 100 µM.
As to `Cc1c(-c2ccccc2)[nH]c2ccc(Cl)cc2c1=O`, the TGI with MDA-N was 54.6 µM; in the test with SF-268 CNS, above 100 µM; in the test on SN12C renal, above 100 µM; in the test on ACHN renal, above 100 µM; with MDA-MB-231 breast, 96 µM; in the test on U251 CNS, 57.5 µM. Further, the TGI in the test on SK-OV-3 ovarian was 87.6 µM; in the test on MALME-3M melanoma it was 48.7 µM; with KM12 colon it was 28.1 µM; with OVCAR-4 ovarian it was 59.7 µM; with SK-MEL-5 melanoma, 56.3 µM; in the test on HT29 colon, above 100 µM. The TGI in the test on HCT-15 colon, in the test on CCRF-CEM leukemia, in the test with HS 578T breast, in the test with MOLT-4 leukemia, in the test on DU-145 prostate and in the test with HCC-2998 colon was above 100 µM throughout. Also, in the test on HCT-116 colon, the TGI turned out to be 52 µM.
For `O=C(Nc1ccc(Cl)cc1)NS(=O)(=O)c1coc2ccccc2c1=O`, the TGI with MDA-N, in the test on SF-268 CNS, with SN12C renal, in the test with ACHN renal, with MDA-MB-231 breast and in the test on U251 CNS was above 10 µM throughout. For the same compound, the TGI with SK-OV-3 ovarian, with MALME-3M melanoma, in the test with KM12 colon, in the test with OVCAR-4 ovarian, with SK-MEL-5 melanoma and with HT29 colon was above 10 µM each time. Besides, the TGI in the test with HCT-15 colon, in the test on CCRF-CEM leukemia, in the test on HS 578T breast, in the test with MOLT-4 leukemia, in the test on DU-145 prostate and in the test with HCC-2998 colon was above 10 µM in each case. In the test with HCT-116 colon, the TGI is above 10 µM.
Consider `CC1C(=NO)C(C)C(c2ccccc2)N(N=O)C1c1ccccc1` (centres undefined), for which the TGI in the test on MDA-N is 36.3 µM; in the test with SF-268 CNS, 35.7 µM; in the test on SN12C renal, 28.8 µM; in the test on ACHN renal, 45.7 µM; with MDA-MB-231 breast it was 32.9 µM; with U251 CNS, 35.4 µM. Moreover, the TGI is 22.7 µM in the test with SK-OV-3 ovarian; 34.6 µM with MALME-3M melanoma; 29.8 µM in the test with KM12 colon; 54.4 µM in the test with OVCAR-4 ovarian; 33.1 µM in the test with SK-MEL-5 melanoma; 33.8 µM in the test with HT29 colon. Besides, the TGI with HCT-15 colon worked out at 31.9 µM; in the test on CCRF-CEM leukemia, 84.5 µM; in the test with HS 578T breast, 36.7 µM; in the test on MOLT-4 leukemia, 44.6 µM; with DU-145 prostate it was 90.8 µM; in the test on HCC-2998 colon, 33.8 µM. In addition, the TGI in the test on HCT-116 colon was determined as 33.3 µM.
